Type in all cases: cell-based
One experiment relates to A. niger. Kind of experiment: agar dilution test, A. niger. To be noted: Aspergillus niger; A. niger; agar dilution; complete growth inhibition; read-out: Minimum Inhibitory Concentration, An. An excerpt: (§1) In representative operations, the products of the invention when tested for antimicrobial activity using conventional agar dilution tests gave complete growth inhibition against the following organisms at the indicated concentrations in parts per million: […]
For orientation: In agar dilution, organisms are placed on agar that contains the substance at set levels.

For another experiment, the system named is P. chrysogenum. Kind of experiment: agar dilution test, P. chrysogenum. Conditions: Penicillium chrysogenum; P. chrysogenum; agar dilution; complete growth inhibition; read-out: Minimum Inhibitory Concentration, Pen.
Excerpt: as §1

A further experiment concerns C. pelliculosa. Description: agar dilution test, C. pelliculosa. To be noted: Hansenula anomala; C. pelliculosa; agar dilution; complete growth inhibition; read-out: Minimum Inhibitory Concentration, Cp.
Excerpt: as §1

The subject of a further experiment is S. typhosa. Description: agar dilution test, S. typhosa. Conditions: read-out: Minimum Inhibitory Concentration, St.
Excerpt: as §1

A further experiment deals with S. cerevisiae. Kind of experiment: agar dilution test, S. cerevisiae. Conditions: Saccharomyces cerevisiae; S. cerevisiae; agar dilution; complete growth inhibition; read-out: Minimum Inhibitory Concentration, Sc.
Excerpt: as §1

Another experiment has as its system A. aerogenes. Kind of experiment: agar dilution test, A. aerogenes. To be noted: Klebsiella aerogenes; A. aerogenes; agar dilution; complete growth inhibition; read-out: Minimum Inhibitory Concentration, Aa.
Excerpt: as §1

The subject of a further experiment is S. aureus. Kind of experiment: agar dilution test, S. aureus. Conditions: Staphylococcus aureus, complete growth inhibition, read-out: Minimum Inhibitory Concentration, Sa.
Excerpt: as §1

The subject of a further experiment is P. aeruginosa. Kind of experiment: agar dilution test, P. aeruginosa. To be noted: Pseudomonas aeruginosa; P. aeruginosa; agar dilution; complete growth inhibition; read-out: Minimum Inhibitory Concentration, Pa.
Excerpt: as §1

In brackets after ≈: the same amount, converted by molar mass.

In the case of `O=C(Nc1ccc(Cl)c(Cl)c1)N1CN2CN(C/C=C\Cl)CN(C2)C1` [Example 3 g)], the MIC in the experiment with A. niger was determined as 500 µg/mL (≈ 1280 µM); in the experiment with P. chrysogenum, 250 µg/mL (≈ 640 µM); in the experiment on C. pelliculosa it was 250 µg/mL (≈ 640 µM); with S. typhosa, 25 µg/mL (≈ 64 µM); in the experiment on S. cerevisiae, 250 µg/mL (≈ 640 µM); with A. aerogenes, 250 µg/mL (≈ 640 µM). For the same compound, the results for the MIC with S. aureus and in the experiment with P. aeruginosa were 50 µg/mL (≈ 128 µM) and 250 µg/mL (≈ 640 µM), respectively.

In the case of `O=C(NC1CCCCC1)N1CN2CN(C/C=C\Cl)CN(C2)C1` [Example 3 h)], the MIC came out at 500 µg/mL (≈ 1530 µM) in the experiment on A. niger; 250 µg/mL (≈ 763 µM) with P. chrysogenum; 250 µg/mL (≈ 763 µM) in the experiment on C. pelliculosa; 25 µg/mL (≈ 76.3 µM) in the experiment on S. typhosa; 250 µg/mL (≈ 763 µM) in the experiment on S. cerevisiae; 50 µg/mL (≈ 153 µM) with A. aerogenes. Also, the results for the MIC in the experiment with S. aureus and in the experiment with P. aeruginosa were 75 µg/mL (≈ 229 µM) and 50 µg/mL (≈ 153 µM), respectively.

As for `Cc1ccc(S(=O)(=O)NC(=O)N2CN3CN(C/C=C\Cl)CN(C3)C2)cc1` [Example 3 i)], the MIC was over 500 µg/mL in the experiment with A. niger; 500 µg/mL (≈ 1250 µM) in the experiment with P. chrysogenum; 500 µg/mL (≈ 1250 µM) in the experiment on C. pelliculosa; 50 µg/mL (≈ 125 µM) in the experiment on S. typhosa; 500 µg/mL (≈ 1250 µM) in the experiment on S. cerevisiae; 250 µg/mL (≈ 625 µM) in the experiment with A. aerogenes. The MIC in the experiment on S. aureus came to 250 µg/mL (≈ 625 µM); with P. aeruginosa, 500 µg/mL (≈ 1250 µM).

Turning to `S=C(Nc1ccc(Cl)cc1)N1CN2CN(C/C=C\Cl)CN(C2)C1` [Example 3 j)], the MIC with A. niger turned out to be 250 µg/mL (≈ 671 µM); in the experiment with P. chrysogenum, 100 µg/mL (≈ 269 µM); in the experiment on C. pelliculosa, 250 µg/mL (≈ 671 µM); in the experiment with S. typhosa it was 50 µg/mL (≈ 134 µM); with S. cerevisiae, 250 µg/mL (≈ 671 µM); in the experiment on A. aerogenes, 75 µg/mL (≈ 201 µM). Besides, the MIC was determined as 75 µg/mL (≈ 201 µM) in the experiment on S. aureus and 100 µg/mL (≈ 269 µM) with P. aeruginosa.

With `S=C(Nc1ccc(Br)cc1)N1CN2CN(C/C=C\Cl)CN(C2)C1` [Example 3 k)], the MIC amounted to 500 µg/mL (≈ 1200 µM) with A. niger; 250 µg/mL (≈ 600 µM) in the experiment with P. chrysogenum; 250 µg/mL (≈ 600 µM) in the experiment with C. pelliculosa; 75 µg/mL (≈ 180 µM) in the experiment with S. typhosa; 500 µg/mL (≈ 1200 µM) in the experiment with S. cerevisiae; 100 µg/mL (≈ 240 µM) with A. aerogenes. Further, the MIC in the experiment with S. aureus and with P. aeruginosa was 250 µg/mL (≈ 600 µM) in each case.

As to `S=C(Nc1ccc(Cl)c(Cl)c1)N1CN2CN(C/C=C\Cl)CN(C2)C1` [Example 3 l)], the MIC in the experiment with A. niger worked out at 250 µg/mL (≈ 615 µM); with P. chrysogenum it was 100 µg/mL (≈ 246 µM); with C. pelliculosa, 250 µg/mL (≈ 615 µM); in the experiment on S. typhosa it was 75 µg/mL (≈ 184 µM); with S. cerevisiae, 250 µg/mL (≈ 615 µM); in the experiment on A. aerogenes, 100 µg/mL (≈ 246 µM). Besides, the MIC with S. aureus is 50 µg/mL (≈ 123 µM); with P. aeruginosa, 100 µg/mL (≈ 246 µM).

On to `Cc1ccc(NC(=S)N2CN3CN(C/C=C\Cl)CN(C3)C2)cc1C` [Example 3 m)], for which the MIC with A. niger stood at 250 µg/mL (≈ 683 µM); in the experiment with P. chrysogenum it was 100 µg/mL (≈ 273 µM); in the experiment with C. pelliculosa, 250 µg/mL (≈ 683 µM); in the experiment with S. typhosa it was 50 µg/mL (≈ 137 µM); with S. cerevisiae, 250 µg/mL (≈ 683 µM); with A. aerogenes it was 75 µg/mL (≈ 205 µM). Further, the MIC is 50 µg/mL (≈ 137 µM) in the experiment on S. aureus and 100 µg/mL (≈ 273 µM) with P. aeruginosa.

On to `CCCCNC(=O)N1CN2CN(C/C=C\Cl)CN(C2)C1` [Example 3 n)], for which the MIC in the experiment with A. niger is 250 µg/mL (≈ 828 µM); with P. chrysogenum it was 250 µg/mL (≈ 828 µM); with C. pelliculosa, 250 µg/mL (≈ 828 µM); in the experiment on S. typhosa, 25 µg/mL (≈ 82.8 µM); in the experiment on S. cerevisiae it was 250 µg/mL (≈ 828 µM); with A. aerogenes, 50 µg/mL (≈ 166 µM). The MIC was 50 µg/mL (≈ 166 µM) in the experiment on S. aureus and 75 µg/mL (≈ 248 µM) in the experiment with P. aeruginosa.

Consider `CCCCNC(=S)N1CN2CN(C/C=C\Cl)CN(C2)C1` [Example 3 o)], for which the MIC in the experiment on A. niger is 500 µg/mL (≈ 1570 µM); with P. chrysogenum it was 500 µg/mL (≈ 1570 µM); in the experiment with C. pelliculosa, over 500 µg/mL; with S. typhosa it was 75 µg/mL (≈ 236 µM); in the experiment with S. cerevisiae, 500 µg/mL (≈ 1570 µM); in the experiment with A. aerogenes, 100 µg/mL (≈ 315 µM). The MIC with S. aureus was 100 µg/mL (≈ 315 µM); in the experiment with P. aeruginosa, 250 µg/mL (≈ 786 µM).
